Experimental data from ChEMBL document CHEMBL1130768, “DNA cleavage by 7-methylbenzopentathiepin: a simple analog of the antitumor antibiotic varacin” (1998).
Values after ≈ are worked out from the molar mass of the structure shown. Active and inactive are the calls of the source. No cut-off for these calls is given here.

Key:
HCT-116 = assay: Cytotoxicity against a human colon cancer cell line (HCT116 cells) was reported; format: functional
Candida albicans = assay: Antifungal activity against candida albicans was determined; Active; format: functional, organism-based

In the case of COc1cc(CCN)c2c(c1OC)SSSSS2 [VARACIN], the IC90 (HCT-116) is reported as 0.05 µg/mL (≈ 0.147 µM) and the Activity (Candida albicans) is reported as “Active”.
